Source: patent US20070004660A1, “Synergistic Modulation of Flt3 Kinase Using Alkylquinolines and Alkylquinazolines” (priority 2005, published 2007)
pIC50: −log10 of the molar value.

How the values were obtained:
[1] = target: T1, isolated kinase domain of the human FLT3 receptor (a.a. 571-993) (Homo sapiens, UniProt P36888); experiment: FLT3 fluorescence polarization kinase assay; format: biochemical; conditions: 150 uM ATP; uncertainty ±10%
T1 construct: human FLT3 receptor (a.a. 571-993)
T1 sequence (P36888 571-993): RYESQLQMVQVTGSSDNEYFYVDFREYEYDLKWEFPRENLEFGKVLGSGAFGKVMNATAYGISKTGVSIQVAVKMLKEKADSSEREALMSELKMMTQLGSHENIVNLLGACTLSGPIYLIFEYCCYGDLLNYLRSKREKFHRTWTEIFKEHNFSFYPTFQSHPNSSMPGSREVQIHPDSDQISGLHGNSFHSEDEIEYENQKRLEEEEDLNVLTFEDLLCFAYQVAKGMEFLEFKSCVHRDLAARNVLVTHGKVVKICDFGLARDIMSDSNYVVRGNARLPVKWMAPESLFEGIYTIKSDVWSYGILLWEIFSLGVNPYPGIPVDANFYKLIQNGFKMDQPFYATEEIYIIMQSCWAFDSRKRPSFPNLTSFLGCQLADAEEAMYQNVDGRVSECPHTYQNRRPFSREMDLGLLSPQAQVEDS
Method: The FLT3 FP assay utilizes the fluorescein-labeled phosphopeptide and the anti-phosphotyrosine antibody included in the Panvera Phospho-Tyrosine Kinase Kit (Green) supplied by Invitrogen. When FLT3 phosphorylates polyGlu4Tyr, the fluorescein-labeled phosphopeptide is displaced from the anti-phosphotyrosine antibody by the phosphorylated poly Glu4Tyr, thus decreasing the FP value. The FLT3 kinase reaction is incubated at room temperature for 30 minutes under the following conditions: 10 nM FLT3 571-993, 20 ug/mL poly Glu4Tyr, 150 uM ATP, 5 mM MgCl2, 1% compound in DMSO. The kinase reaction is stopped with the addition of EDTA. The fluorescein-labeled phosphopeptide and the anti-phosphotyrosine antibody are added and incubated for 30 minutes at room temperature.
All data points are an average of triplicate samples. Inhibition and IC50 data analysis was done with GraphPad Prism using a non-linear regression fit with a multiparamater, sigmoidal dose-response (variable slope) equation.

[2] = target: T2, wild-type FLT3 receptor (Homo sapiens, UniProt P36888); experiment: Cell-based FLT3 receptor ELISA (FLT ligand-induced phosphorylation in Baf3 FLT3 cells); conditions: 100 ng/mL Flt ligand, uncertainty ±20%
T2 construct: host or cells: Baf3 (murine B cell lymphoma line), stably transfected
T2 sequence (P36888 27-993): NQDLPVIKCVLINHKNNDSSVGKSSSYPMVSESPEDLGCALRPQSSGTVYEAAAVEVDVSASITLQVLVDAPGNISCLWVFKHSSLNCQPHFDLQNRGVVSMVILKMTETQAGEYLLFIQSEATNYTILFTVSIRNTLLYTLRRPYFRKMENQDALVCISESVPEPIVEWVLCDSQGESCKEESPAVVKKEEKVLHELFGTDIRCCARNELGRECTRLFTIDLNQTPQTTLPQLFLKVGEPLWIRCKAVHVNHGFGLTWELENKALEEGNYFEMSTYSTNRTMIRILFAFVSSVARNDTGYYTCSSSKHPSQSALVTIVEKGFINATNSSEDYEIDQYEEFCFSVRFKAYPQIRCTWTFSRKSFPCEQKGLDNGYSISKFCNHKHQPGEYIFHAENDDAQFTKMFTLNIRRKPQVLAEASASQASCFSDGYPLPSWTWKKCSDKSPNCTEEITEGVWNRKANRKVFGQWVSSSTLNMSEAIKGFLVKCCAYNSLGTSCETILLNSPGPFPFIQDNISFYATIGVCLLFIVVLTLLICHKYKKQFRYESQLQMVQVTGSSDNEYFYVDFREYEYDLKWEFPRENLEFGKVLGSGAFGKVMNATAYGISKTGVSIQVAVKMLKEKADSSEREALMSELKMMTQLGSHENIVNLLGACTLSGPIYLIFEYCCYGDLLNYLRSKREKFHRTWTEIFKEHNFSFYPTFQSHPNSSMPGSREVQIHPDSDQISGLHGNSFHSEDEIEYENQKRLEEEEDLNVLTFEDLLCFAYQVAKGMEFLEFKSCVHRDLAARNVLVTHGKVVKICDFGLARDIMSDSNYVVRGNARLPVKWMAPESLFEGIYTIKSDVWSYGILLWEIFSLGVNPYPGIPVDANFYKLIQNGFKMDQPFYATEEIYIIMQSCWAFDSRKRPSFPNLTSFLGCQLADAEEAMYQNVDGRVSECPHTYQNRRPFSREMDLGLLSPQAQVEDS
Method: Specific cellular inhibition of FLT ligand-induced wild-type FLT3 phosphorylation was measured in the following manner: Baf3 FLT3 cells overexpressing the FLT3 receptor were obtained from Dr. Michael Heinrich (Oregon Health and Sciences University). The Baf3 FLT3 cell lines were created by stable transfection of parental Baf3 cells (a murine B cell lymphoma line dependent on the cytokine IL-3 for growth) with wild-type FLT3. Cells were selected for their ability to grow in the absence of IL-3 and in the presence of FLT3 ligand. Baf3 cells were maintained in RPMI 1640 with 10% FBS, penn/strep and 10 ng/ml FLT ligand at 37° C., 5% CO2. To measure direct inhibition of the wild-type FLT3 receptor activity and phosphorylation a sandwich ELISA method was developed similar to those developed for other RTKs (see Sadick, M D, Sliwkowski, M X, Nuijens, A, Bald, L, Chiang, N, Lofgren, J A, Wong W L T. Analysis of Heregulin-Induced ErbB2 Phosphorylation with a High-Throughput Kinase Receptor Activation Enzyme-Linked Immunsorbent Assay, Analytical Biochemistry. 1996; 235:207-214 and Baumann C A, Zeng L, Donatelli R R, Maroney A C. Development of a quantitative, high-throughput cell-based enzyme-linked immunosorbent assay for detection of colony-stimulating factor-1 receptor tyrosine kinase inhibitors. J Biochem Biophys Methods. 2004; 60:69-79.). 200 μL of Baf3FLT3 cells (1×10^6 /mL) were plated in 96 well dishes in RPMI 1640 with 0.5% serum and 0.01 ng/mL IL-3 for 16 hours prior to 1 hour compound or DMSO vehicle incubation. Cells were treated with 100 ng/mL Flt ligand (R&D Systems Cat# 308-FK) for 10 min. at 37° C. Cells were pelleted, washed and lysed in 100 ul lysis buffer (50 mM Hepes, 150 mM NaCl, 10% Glycerol, 1% Triton-X-100, 10 mM NaF, 1 mM EDTA, 1.5 mM MgCl2, 10 mM NaPyrophosphate) supplemented with phosphatase (Sigma Cat# P2850) and protease inhibitors (Sigma Cat #P8340). Lysates were cleared by centrifugation at 1000×g for 5 minutes at 4° C. Cell lysates were transferred to white wall 96 well microtiter (Costar #9018) plates coated with 50 ng/well anti-FLT3 antibody (Santa Cruz Cat# sc-480) and blocked with SeaBlock reagent (Pierce Cat#37527). Lysates were incubated at 4° C. for 2 hours. Plates were washed 3× with 200 ul/well PBS/0.1% Triton-X-100. Plates were then incubated with 1:8000 dilution of HRP-conjugated anti-phosphotyrosine antibody (Clone 4G10, Upstate Biotechnology Cat#16-105) for 1 hour at room temperature. Plates were washed 3× with 200 ul/well PBS/0.1% Triton-X-100. Signal detection with Super Signal Pico reagent (Pierce Cat#37070) was done according to manufacturer's instruction with a Berthold microplate luminometer. All data points are an average of triplicate samples. […] Inhibition and IC50 data analysis was done with GraphPad Prism using a non-linear regression fit with a multiparamater, sigmoidal dose-response (variable slope) equation.

[3] = system: MV4-11 cells; experiment: Inhibition of MV4-11 cell proliferation (CellTiterGlo, 72 h); format: cell-based; conditions: Homo sapiens; 72 h growth inhibition; uncertainty ±20%
Method: MV4-11 cells cannot grow and survive without active FLT3ITD.
To measure proliferation inhibition by test compounds, the luciferase based CellTiterGlo reagent (Promega), which quantifies total cell number based on total cellular ATP concentration, was used. Cells are plated at 10,000 cells per well in 100 ul of in RPMI media containing penn/strep, 10% FBS and 1 ng/ml GM-CSF or 1 ng/ml IL-3 for MV4-11 and Baf3 cells respectively.
Compound dilutions or 0.1% DMSO (vehicle control) are added to cells and the cells are allowed to grow for 72 hours at standard cell growth conditions (37° C., 5% CO2). For activity measurements in MV4-11 cells grown in 50% plasma, cells were plated at 10,000 cells per well in a 1:1 mixture of growth media and human plasma (final volume of 100 μL). To measure total cell growth an equal volume of CellTiterGlo reagent was added to each well, according to the manufacturer's instructions, and luminescence was quantified. Total cell growth was quantified as the difference in luminescent counts (relative light units, RLU) of cell number at Day 0 compared to total cell number at Day 3 (72 hours of growth and/or compound treatment). One hundred percent inhibition of growth is defined as an RLU equivalent to the Day 0 reading. Zero percent inhibition was defined as the RLU signal for the DMSO vehicle control at Day 3 of growth. All data points are an average of triplicate samples. […] Inhibition and IC50 data analysis was done with GraphPad Prism using a non-linear regression fit with a multiparamater, sigmoidal dose-response (variable slope) equation.
MV4-11 cells express the FLT3 internal tandem duplication mutation, and thus are entirely dependent upon FLT3 activity for growth. […] In contrast, the Baf3 cell proliferation is driven by the cytokine IL-3 and thus are used as a non-specific toxicity control for test compounds.

| pIC50 [1] | pIC50 [2] | pIC50 [3] | Compound |
| --- | --- | --- | --- |
| 6.20 | 6.23 |  | COC[C@H]1CCCN1c1ccc2c(C3CCN(C(=O)Nc4ccc(N5CCOCC5)cc4)CC3)ncnc2c1 [Example 130, (R)-4-[7-(2-Methoxymethyl-pyrrolidin-1-yl)-quinazolin-4-yl]-piperidine-1-carboxylic acid (4-morpholin-4-yl-phenyl)-amide] |
| 8.52 |  | 7.77 | CN(C)C(=O)N1CCN(c2ccc3c(C4CCN(C(=O)Nc5ccc(N6CCCC6)cc5)CC4)ncnc3c2)CC1 [Example 168, 4-{4-[1-(4-Pyrrolidin-1-yl-phenylcarbamoyl)-piperidin-4-yl]-quinazolin-7-yl}-piperazine-1-carboxylic acid dimethylamide] |
| 6.53 |  | 6.83 | COc1ccc2ncnc(C3CCN(C(=O)Nc4ccc(OC(C)C)cc4)CC3)c2c1 [Compound 203, 4-(6-Methoxy-quinazolin-4-yl)-piperidine-1-carboxylic acid (4-isopropoxy-phenyl)-amide] |
| 6.51 |  | < 6.00 | CC(C)Oc1ccc(NC(=O)N2CCC(c3ncnc4cc(OCCCc5nnn[nH]5)ccc34)CC2)cc1 [Compound 204, 4-{7-[3-(1H-Tetrazol-5-yl)-propoxy]-quinazolin-4-yl}-piperidine-1-carboxylic acid (4-isopropoxy-phenyl)-amide] |
| 5.66 |  | 6.00 | CN1CCN(CCCOc2ccc3c(C4CCN(C(=S)Nc5ccc(N6CCOCC6)nc5)CC4)ncnc3c2)CC1 [Example 106, 4-{7-[3-(4-Methyl-piperazin-1-yl)-propoxy]-quinazolin-4-yl}-piperidine-1-carbothioic acid (6-morpholin-4-yl-pyridin-3-yl)-amide] |
| 8.05 |  | 6.75 | O=C(Nc1ccc(N2CCCC2)nc1)N1CCC(c2ncnc3cc(OCCCn4cnnc4)ccc23)CC1 [Example 114, 4-[7-(3-[1,2,4]Triazol-4-yl-propoxy)-quinazolin-4-yl]-piperidine-1-carboxylic acid (6-pyrrolidin-1-yl-pyridin-3-yl)-amide] |
| 4.99 |  | 6.64 | CN1CCN(c2ccc3ncnc(C4CCN(C(=O)Nc5ccc(N6CCOCC6)cc5)CC4)c3c2)CC1 [Compound 198, 4-[6-(4-Methyl-piperazin-1-yl)-quinazolin-4-yl]-piperidine-1-carboxylic acid (4-morpholin-4-yl-phenyl)-amide] |
| 6.00 |  | 5.70 | COc1cc2ncnc(C3CCN(C(=O)Nc4ccc(C(F)(F)F)cc4)CC3)c2cc1OC [Example 46, 4-(6,7-Dimethoxy-quinazolin-4-yl)-piperidine-1-carboxylic acid (4-trifluoromethyl-phenyl)-amide] |
| 7.68 |  | 8.22 | COCC(=O)N1CCN(c2ccc3c(C4CCN(C(=O)Nc5ccc(N6CCCC6)cc5)CC4)ncnc3c2)CC1 [Compound 200] |
| 6.86 |  | 6.96 | COc1cc2ncnc(C3CCN(C(=O)Nc4ccc(N5CCCCC5)c(Cl)c4)CC3)c2cc1OC [Example 71, 4-(6,7-Dimethoxy-quinazolin-4-yl)-piperidine-1-carboxylic acid (3-chloro-4-piperidin-1-yl-phenyl)-amide] |
| 7.72 |  | 6.20 | CN(C)c1c(NCCCOc2ccc3c(C4CCN(C(=O)Nc5ccc(N6CCCC6)nc5)CC4)ncnc3c2)c(=O)c1=O [Example 111, 4-{7-[3-(2-Dimethylamino-3,4-dioxo-cyclobut-1-enylamino)-propoxy]-quinazolin-4-yl}-piperidine-1-carboxylic acid (6-pyrrolidin-1-yl-pyridin-3-yl)-amide] |
| 6.14 |  | 5.48 | COc1ccc(NC(=O)N2CCC(c3ncnc4cc(OC)c(OC)cc34)CC2)cc1 [Example 41, 4-(6,7-Dimethoxy-quinazolin-4-yl)-piperidine-1-carboxylic acid (4-methoxy-phenyl)-amide] |
